# Source: patent publication US7166581B1, “Treatment of chemotherapeutic agent and antiviral agent toxicity with acylated pyrimidine nucleosides” (Wellstat Therapeutics Corporation, priority 1987, dated 2007)
# System: hematopoietic system (AZT toxicity)
# Test: Oral TAU vs hematopoietic damage by i.p. AZT (Example 9)
# Format: in vivo, female Balb/C mice
# Description: AZT (100 mg/kg i.p.) was given three times daily at 9 a.m., 4 p.m., and at 10 p.m. to fifty-six female Balb/C mice weighing approximately 19 grams each. Three times each day, at 9 a.m., 4 p.m., and 10 p.m., animals were treated with either water (control) or TAU at doses of 230, 460, or 920 mg/kg/treatment by oral intubation. Treatment volume was 0.2 ml for the control and TAU 460 groups, 0.1 ml for the TAU 230 group, and 0.4 ml for the TAU 920 group. One additional group of fourteen mice was not given AZT or any treatments (basal).
# All of the animals were weighed on the day the experiment began, on day six and on day 13. After weighing the mice on days six and thirteen blood (0.2–0.3 ml) was collected from seven mice in each group by retro-orbital bleeding into EDTA for subsequent differential blood cell counting, including reticulocytes. Mice were then sacrificed by cervical dislocation; their right femurs removed and the contents expelled for cell counting; and their spleens removed and weighed.
# [1] = day 13, AZT i.p. + oral TAU 460 mg/kg/treatment
smiles,measurement,setting,value
"CC(=O)OC[C@H]1O[C@@H](n2ccc(=O)[nH]c2=O)[C@H](OC(C)=O)[C@@H]1OC(C)=O [TAU, triacetyluridine]",HCT,[1],40.83 ± 0.37%
same,HGB,[1],14.54 ± G/dL
same,Lymph.,[1],6.06 ± 0.38 K/μl
same,Neutro.,[1],0.62 ± 0.03 K/μl
same,Platelets,[1],863 ± 26 K/μl
same,RBC,[1],8.58 ± M/μl
same,Retic.,[1],0.162 ± 0.014 M/μl
same,WBC,[1],7.0 ± K/μl
same,bone marrow cellularity,"day six, AZT 100 mg/kg i.p. three times daily + oral TAU 230 mg/kg",8.89±0.46
same,RBC levels,"day six, AZT i.p. + oral TAU 460 mg/kg/treatment",9.15±0.07 ×10^6 per microliter
same,WBC counts,"day six, AZT i.p. + oral TAU 920 mg/kg",8.46±0.63 ×10^3 per microliter
